These results are taken from patent publication US10889555B2, “Sulfonamide compound or salt thereof” (Taiho Pharmaceutical Co., Ltd., priority 2016, dated 2021).

For the test, the system named is HCC 1806 cells. As to the kind of experiment: Cell proliferation inhibitory effect on human breast cancer cell line (crystal violet, 72 hours). The test is classed as cell-based. As to conditions: Homo sapiens, HCC1806, 72 h, read-out: Cell growth suppression IC50. A digest of the protocol: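 Cells were seeded at 2,000/well in RPMI-1640 with 10% FBS and grown 1 day, then exposed to compound for 72 h at 37° C, 5% CO2. After glutaraldehyde fixation and 0.05% crystal violet staining, extracted dye was read at 540 nm. IC50 (μM) came from growth inhibition relative to untreated and cell-free wells.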
As for `COc1c(S(=O)(=O)N[C@H](c2n[nH]c(=O)o2)[C@H](C)c2c(F)ccc(C)c2C)ccc(Cl)c1C(C)O` (stereo partly drawn) [Example 204, 4-chloro-N-((1S,2R)-2-(6-fluoro-2,3-dimethylphenyl)-1-(5-oxo-4,5-dihydro-1,3,4-oxadiazol-2-yl)propyl)-3-(1-hydroxyethyl)-2-methoxybenzenesulfonamide], the half-inhibitory concentration (IC50) is 150 nM.

For `COc1c(S(=O)(=O)N[C@H](c2n[nH]c(=O)o2)[C@H](C)c2c(F)ccc3ccccc23)ccc(Cl)c1C(C)O` (stereo partly drawn) [Example 205, 4-chloro-N-((1S,2R)-2-(2-fluoronaphthalene-1-yl)-1-(5-oxo-4,5-dihydro-1,3,4-oxadiazol-2-yl)propyl)-3-(1-hydroxyethyl)-2-methoxybenzenesulfonamide], the half-inhibitory concentration (IC50) is 250 nM.

Take `CCc1ccc(F)c([C@@H](C)[C@H](NS(=O)(=O)c2ccc(Cl)c(C(C)O)c2OC)c2n[nH]c(=O)o2)c1C` (stereo partly drawn) [Example 206A, 4-chloro-N-((1S,2R)-2-(3-ethyl-6-fluoro-2-methylphenyl)-1-(5-oxo-4,5-dihydro-1,3,4-oxadiazol-2-yl)propyl)-3-(1-hydroxyethyl)-2-methoxybenzenesulfonamide]: the IC50 amounted to 570 nM.

Take `Cc1ccc(F)c([C@@H](C)[C@H](NS(=O)(=O)c2cccc3c2OCCC3(O)C(F)(F)F)c2n[nH]c(=O)o2)c1C` (stereo partly drawn) [Example 211A, N-((1S,2R)-2-(6-fluoro-2,3-dimethylphenyl)-1-(5-oxo-4,5-dihydro-1,3,4-oxadiazol-2-yl)propyl)-4-hydroxy-4-(tifluoromethyl)chroman-8-sulfonamide]: the IC50 amounted to 850 nM.

As to `COc1c(S(=O)(=O)N[C@H](c2n[nH]c(=O)o2)[C@H](C)c2c(F)ccc(C)c2C)ccc(Cl)c1C(C)(C)O` [Example 212, 4-chloro-N-((1S,2R)-2-(6-fluoro-2,3-dimethylphenyl)-1-(5-oxo-4,5-dihydro-1,3,4-oxadiazol-2-yl)propyl)-3-(2-hydroxypropan-2-yl)-2-methoxybenzenesulfonamide], the concentration for half-maximal inhibition (IC50) turned out to be 260 nM.

In the case of `COc1c(S(=O)(=O)N[C@H](c2n[nH]c(=O)o2)[C@H](C)c2c(F)ccc(C)c2C)ncc(Cl)c1C(C)O` (stereo partly drawn) [Example 216, 5-chloro-N-((1S,2R)-2-(6-fluoro-2,3-dimethylphenyl)-1-(5-oxo-4,5-dihydro-1,3,4-oxadiazol-2-yl)propyl)-4-(1-hydroxyethyl)-3-methoxypyridine-2-sulfonamide], the half-inhibitory concentration (IC50) was 670 nM.

Take `Cc1cccc2cccc([C@@H](C)[C@H](NS(=O)(=O)c3ccc(Cl)c4c3OCCC4O)c3n[nH]c(=O)o3)c12` (stereo partly drawn) [Example 232, 5-chloro-4-hydroxy-N-((1S,2R)-2-(8-methylnaphthalene-1-yl)-1-(5-oxo-4,5-dihydro-1,3,4-oxadiazol-2-yl)propyl)chroman-8-sulfonamide]: the concentration for half-maximal inhibition (IC50) came to 330 nM.

Regarding `C[C@H](c1c(F)ccc2ccccc12)[C@H](NS(=O)(=O)c1ccc(Cl)c2c1OCCC2O)c1n[nH]c(=O)o1` (stereo partly drawn) [Example 233, 5-chloro-N-((1S,2R)-2-(2-fluoronaphthalene-1-yl)-1-(5-oxo 4,5-dihydro-1,3,4-oxadiazol-2-yl)propyl)-4-hydroxychroman-8-sulfonamide], the IC50 came to 280 nM.

Turning to `Cc1ccc(F)c([C@@H](C)[C@H](NS(=O)(=O)c2ccc(F)c3c2OCCC3O)c2n[nH]c(=O)o2)c1C` (stereo partly drawn) [Example 241, 5-fluoro-N-((1S,2R)-2-(6-fluoro-2,3-dimethylphenyl)-1-(5-oxo-4,5-dihydro-1,3,4-oxadiazol-2-yl)propyl)-4-hydroxychroman-8-sulfonamide], the IC50 worked out at 490 nM.

Take `Cc1ccc(F)c([C@@H](C)[C@H](NS(=O)(=O)c2ncc(Cl)cc2C(N)=O)c2n[nH]c(=O)o2)c1C` [Example 245, 5-chloro-2-(N-((1S,2R)-2-(6-fluoro-2,3-dimethylphenyl)-1-(5-oxo-4,5-dihydro-1,3,4-oxadiazol-2-yl)propyl)sulfamoyl)nicotinamide]: the IC50 was 150 nM.

Regarding `Cc1c(Cl)ccc(F)c1[C@@H](C)[C@H](NS(=O)(=O)c1ncc(Cl)cc1C(N)=O)c1n[nH]c(=O)o1` [Example 249, 5-chloro-2-(N-((1S,2R)-2-(3-chloro-6-fluoro-2-methylphenyl)-1-(5-oxo-4,5-dihydro-1,3,4-oxadiazol-2-yl)propyl)sulfamoyl)nicotinamide], the IC50 came to 140 nM.

Consider `Cc1ccc(F)c([C@@H](C)[C@H](NS(=O)(=O)c2ncc(Br)cc2C(N)=O)c2n[nH]c(=O)o2)c1C` [Example 250, 5-bromo-2-(N-((1S,2R)-2-(6-fluoro-2,3-dimethylphenyl)-1-(5-oxo-4,5-dihydro-1,3,4-oxadiazol-2-yl)propyl)sulfamoyl)nicotinamide], for which the half-maximal inhibitory concentration (IC50) turned out to be 120 nM.

In the case of `CNC(=O)c1nc(S(=O)(=O)N[C@H](c2n[nH]c(=O)o2)[C@H](C)c2c(F)ccc(C)c2C)ccc1Cl` [Example 252, 3-chloro-6-(N-((1S,2R)-2-(6-fluoro-2,3-dimethylphenyl)-1-(5-oxo-4,5-dihydro-1,3,4-oxadiazol-2-yl)propyl)sulfamoyl)-N-methylpicolinamide], the half-inhibitory concentration (IC50) is 740 nM.

Take `Cc1ccc(F)c([C@@H](C)[C@H](NS(=O)(=O)c2ccc(Cl)c(C(=O)N(C)C)n2)c2n[nH]c(=O)o2)c1C` [Example 253, 3-chloro-6-(N-((1S,2R)-2-(6-fluoro-2,3-dimethylphenyl)-1-(5-oxo-4,5-dihydro-1,3,4-oxadiazol-2-yl)propyl)sulfamoyl)-N,N-dimethylpicolinamide]: the IC50 came out at 230 nM.

For the compound `Cc1c(Cl)ccc(F)c1[C@@H](C)[C@H](NS(=O)(=O)c1ncc(Br)cc1C(N)=O)c1n[nH]c(=O)o1` [Example 254, 5-bromo-2-(N-((1S,2R)-2-(3-chloro-6-fluoro-2-methylphenyl)-1-(5-oxo-4,5-dihydro-1,3,4-oxadiazol-2-yl)propyl)sulfamoyl)nicotinamide], the IC50 was 250 nM.

For `Cc1ccc(F)c([C@@H](C)[C@H](NS(=O)(=O)c2cc(F)c(Cl)cc2C(N)=O)c2n[nH]c(=O)o2)c1C` [Example 255, 5-chloro-4-fluoro-2-(N-((1S,2R)-2-(6-fluoro-2,3-dimethylphenyl)-1-(5-oxo-4,5-dihydro-1,3,4-oxadiazol-2-yl)propyl)sulfamoyl)benzamide], the 50% inhibitory concentration (IC50) came out at 480 nM.

Take `Cc1cc(S(=O)(=O)N[C@H](c2n[nH]c(=O)o2)[C@H](C)c2c(F)ccc(C)c2C)c(C(N)=O)cc1Cl` [Example 257, 5-chloro-2-(N-((1S,2R)-2-(6-fluoro-2,3-dimethylphenyl)-1-(5-oxo-4,5-dihydro-1,3,4-oxadiazol-2-yl)propyl)sulfamoyl)-4-methylbenzamide]: the half-maximal inhibitory concentration (IC50) came to 200 nM.

On to `Cc1ccc(F)c([C@@H](C)[C@H](NS(=O)(=O)c2c(F)cc(Cl)cc2C(N)=O)c2n[nH]c(=O)o2)c1C` [Example 258, 5-chloro-3-fluoro-2-(N-((1S,2R)-2-(6-fluoro-2,3-dimethylphenyl)-1-(5-oxo-4,5-dihydro-1,3,4-oxadiazol-2-yl)propyl)sulfamoyl)benzamide], for which the IC50 came to 580 nM.

Turning to `COc1cc(S(=O)(=O)N[C@H](c2n[nH]c(=O)o2)[C@H](C)c2c(F)ccc(C)c2C)c(C(N)=O)cc1Cl` [Example 259, 5-chloro-2-(N-((1S,2R)-2-(6-fluoro-2,3-dimethylphenyl)-1-(5-oxo-4,5-dihydro-1,3,4-oxadiazol-2-yl)propyl)sulfamoyl)-4-methoxybenzamide], the IC50 came out at 350 nM.

Take `Cc1ccc(F)c([C@@H](C)[C@H](NS(=O)(=O)c2cc3c(cc2C(N)=O)OCCO3)c2n[nH]c(=O)o2)c1C` [Example 261, 7-(N-((1S,2R)-2-(6-fluoro-2,3-dimethylphenyl)-1-(5-oxo-4,5-dihydro-1,3,4-oxadiazol-2-yl)propyl)sulfamoyl)-2,3-dihydrobenzo[b][1,4]dioxin-6-carboxamide]: the IC50 worked out at 720 nM.

On to `Cc1ccc(F)c([C@@H](C)[C@H](NS(=O)(=O)c2cc([N+](=O)[O-])c(Cl)cc2C(N)=O)c2n[nH]c(=O)o2)c1C` [Example 262, 5-chloro-2-(N-((1S,2R)-2-(6-fluoro-2,3-dimethylphenyl)-1-(5-oxo-4,5-dihydro-1,3,4-oxadiazol-2-yl)propyl)sulfamoyl)-4-nitrobenzamide], for which the IC50 worked out at 170 nM.

`Cc1c(Br)ccc(F)c1[C@@H](C)[C@H](NS(=O)(=O)c1ncc(Cl)cc1C(N)=O)c1n[nH]c(=O)o1` [Example 264, 2-(N-((1S,2R)-2-(3-bromo-6-fluoro-2-methylphenyl)-1-(5-oxo-4,5-dihydro-1,3,4-oxadiazol-2-yl)propyl)sulfamoyl)-5-chloronicotinamide]: the 50% inhibitory concentration (IC50) is 760 nM.

`Cc1ccc(F)c([C@@H](C)[C@H](NS(=O)(=O)c2ccc(Cl)c3c2OCC(=O)N3CCO)c2n[nH]c(=O)o2)c1C` [Example 273, 5-chloro-N-((1S,2R)-2-(6-fluoro-2,3-dimethylphenyl)-1-(5-oxo-4,5-dihydro-1,3,4-oxadiazol-2-yl)propyl)-4-(2-hydroxyethyl)-3-oxo-3,4-dihydro-2H-benzo[b][1,4]oxazine-8-sulfonamide]: the half-inhibitory concentration (IC50) came out at 810 nM.

Regarding `Cc1ccc(F)c([C@@H](C)[C@H](NS(=O)(=O)c2ccc(Cl)c3c2OCCN3)c2n[nH]c(=O)o2)c1C` [Example 275, 5-chloro-N-((1S,2R)-2-(6-fluoro-2,3-dimethylphenyl)-1-(5-oxo-4,5-dihydro-1,3,4-oxadiazol-2-yl)propyl)-3,4-dihydro-2H-benzo[b][1,4]oxazine-8-sulfonamide], the IC50 stood at 370 nM.

On to `Cc1ccc(F)c([C@@H](C)[C@H](NS(=O)(=O)c2ccc(Cl)c3c2OCCC3N)c2n[nH]c(=O)o2)c1C` (stereo partly drawn) [Example 278, 4-amino-5-chloro-N-((1S,2R)-2-(6-fluoro-2,3-dimethylphenyl)-1-(5-oxo-4,5-dihydro-1,3,4-oxadiazol-2-yl)propyl)chroman-8-sulfonamide], for which the half-inhibitory concentration (IC50) was 590 nM.

Regarding `Cc1ccc(F)c([C@@H](C)[C@H](NS(=O)(=O)c2ccc(Cl)c3c2OCCN3C)c2n[nH]c(=O)o2)c1C` [Example 288, 5-chloro-N-((1S,2R)-2-(6-fluoro-2,3-dimethylphenyl)-1-(5-oxo-4,5-dihydro-1,3,4-oxadiazol-2-yl)propyl)-4-methyl-3,4-dihydro-2H-benzo[b][1,4]oxazine-8-sulfonamide], the half-inhibitory concentration (IC50) is 150 nM.

One may read the IC50 as the concentration needed to halve the response being measured.
